Experiments:
tumor endothelial CD31 = assay: immunofluorescent staining of tumors: CD31; format: in vivo, BALB/c mice; settings: single SC injection of 3 mg or 10 mg crystals, compared to daily bolus
Procedure: To confirm the effects seen at the level of RNA, immunofluorescent staining of excised tumor samples that were in parallel fixed with paraformaldehyde and embedded in paraffin was performed. […] Co-localization of CD31 with aSMact was, as expected, not linked in crystal sorafenib-treated tumors, where CD31 reduction was more extensive than with daily, bolus sorafenib.
Immunofluorescence imaging was used to determine anti-angiogenic drug efficacy. Tumor tissues were retrieved from mice and fixed overnight using 4% paraformaldehyde at 4° C. After fixation, retrieved tissue samples were moved to 70% ethanol. Samples were then processed for paraffin embedding, sectioning and staining. […] Next, tissues were incubated for 1 hour in an immunostaining cocktail solution consisting of NucBlue (Thermo), specific marker probes (1:200 dilution) anti-CD31 (Cat#DIA-310, HistoBioTec) and anti-alphaSmoothMuscle actin-Cy3 (Sigma) in Dako staining buffer. For CD31, a goat anti-rat alexa-fluor647 secondary antibody was also used (1:400). After staining, samples were rinsed again with 1X PBS three times prior to slides being cover slipped with Pro-long anti-fade Gold (Thermo). […] For stain quantification, images were converted into 8-bit image files, a background threshold was determined using NIH ImageJ, and then all images were processed using an NIH ImageJ macro to quantify the area of positive stain. […]

[1] = in vitro release under accelerated release conditions; format: physicochemical; settings: 37° C., PBS+0.3% SDS, 2.9 mg drug, 12-day time course; amorphous vs 50 μm vs 150-200 μm crystals
Excerpt: After crystals visibly stopped precipitating or growing, the vessel was submerged in an ultrasonic water bath for 10-30 seconds to dislodge crystals from the vessel sidewall and break them into more a uniform size distributions, either smaller fines, for example 50 μm, or between 150-200 μm, as measured by brightfield and scanning electron microscopy, shown in FIGS. 2A-2B. Resultant product was then removed from the supernatant mother solution, dried, weighed, and stored for later use. On average, yielded crystal was approximately 40% of the starting powder. Furthermore, methods exist to quantify solubilized material, typically using optics to identify changes in light transmittance, and enabled testing of crystal stability in a range of aqueous solutions. […] To simulate cumulative drug release over time, all 3 mL supernatant volumes were removed and replaced with completely fresh release media at desired times of 1 hr, 4 hr, 6 hr, 8 hr, 10 hr, 1 day, 2 days, 5 days, 7 days, 10 days and 12 days, and 200 μL aliquots were measured in individual wells of a 96-well plate at 266 nm to determine solubilize sorafenib release, as shown in FIG. 2D.
Release studies were carried out under accelerated conditions in PBS with 0.3% w/v SDS in 1X PBS. […] Drug concentration in samples was measured using a UV-calibrated Tecan infinite M200 PRO. […]

[2] = crystals collected from vitreous fluid after intravitreal injection; format: in vivo, mouse; settings: collected 2 weeks after injection; compared to larger crystalline sorafenib

CNC(=O)c1cc(Oc2ccc(NC(=O)Nc3ccc(Cl)c(C(F)(F)F)c3)cc2)ccn1 [crystalline sorafenib, sorafenib]
tumor endothelial CD31 levels (immunofluorescence) (tumor endothelial CD31): reduction is greater | release of solubilized sorafenib (cumulative) [1]: tuned by varying crystal | polymorph and crystal form of crystals recovered from vitreous fluid [2]: identical in polymorph and crystal form
